The nature of this series: Entrapment efficiency of small molecules in L-His crystals (HPLC of supernatant). Type of series: physicochemical. The settings on record: within L-His crystals; determined by HPLC. The method, then: A 30 mg/mL solution of L-His (>99%, Sigma-Aldrich) was prepared by dissolving L-His powder in milli-Q water using a vortex mixer at ambient temperature in a Corning® 15 mL centrifuge tube with a closed cap. Then 500 μL of the aqueous solution of L-His and 500 μL of 200 proof ethanol (KOPTEC, PA, US) was added to 200 μL of the small molecule solution (2 mg/mL). The small molecules used in this study were Nile red (>98%, Sigma-Aldrich), pyrene (>98%, Sigma-Aldrich), β-carotene (>97%, Sigma-Aldrich), and doxorubicin HCl (DOX, >98%, Fluka, Mexico City, Mexico). The solution was vortexed for 15 seconds and kept static at ambient temperature. After 3 hours, crystals were collected and washed with ethanol to remove the free small molecules from the surface of the crystals and the supernatant was collected to measure the concentration of non-entrapped small molecules using HPLC. […] Each individual sample of small molecules was quantified based on an optimized method reported in the literature for β-carotene (Etzbach et al., “Characterization of Carotenoid Profiles in Goldenberry (Physalis peruviana L.) Fruits at Various Ripening Stages and in Different Plant Tissues by HPLC-DAD-APCI-MS^n,” Food Chem. 245:508-517 (2018), which is hereby incorporated by reference in its entirety), Nile red (Wu et al., “Drug Delivery to the Skin from Sub-Micron Polymeric Particle Formulations: Influence of Particle Size and Polymer Hydrophobicity,” Pharm Res. 26(8):1995-2001 (2009), which is hereby incorporated by reference in its entirety), pyrene (Jia et al., “Effect of Root Exudates on the Mobility of Pyrene in Mangrove Sediment-Water System,” Catena 162:396-401 (2017), which is hereby incorporated by reference in its entirety), and DOX (Chi et al., “Redox-Sensitive and Hyaluronic Acid Functionalized Liposomes for Cytoplasmic Drug Delivery to Osteosarcoma in Animal Models,” J. Control Release 261:113-125 (2017), which is hereby incorporated by reference in its entirety). […]
`c1cc2ccc3cccc4ccc(c1)c2c34` [pyrene] showed an Entrapment efficiency of 87%.

In the case of `CCN(CC)c1ccc2nc3c4ccccc4c(=O)cc-3oc2c1` [Nile red], the Entrapment efficiency is 62%.

For `CC1=C(/C=C/C(C)=C/C=C/C(C)=C/C=C/C=C(C)/C=C/C=C(C)/C=C/C2=C(C)CCCC2(C)C)C(C)(C)CCC1` [β-carotene], the Entrapment efficiency is roughly 96%.
